What follows are compounds tested against MCL-1/Bim interaction (recombinant human MCL-1 protein, residues 171-327; biotinylated human Bim peptide, residues 51-76) (Homo sapiens (Human), UniProt Q07820) (assay: MCL-1/Bim Binding AlphaLISA Assay). Conditions: 0.0625 nM 6xHis-Mcl-1 (171-327), 0.0625 nM biotinylated-Bim peptide.
Chain of MCL-1/Bim interaction (recombinant human MCL-1 protein, residues 171-327; biotinylated human Bim peptide, residues 51-76) (Q07820 171-327): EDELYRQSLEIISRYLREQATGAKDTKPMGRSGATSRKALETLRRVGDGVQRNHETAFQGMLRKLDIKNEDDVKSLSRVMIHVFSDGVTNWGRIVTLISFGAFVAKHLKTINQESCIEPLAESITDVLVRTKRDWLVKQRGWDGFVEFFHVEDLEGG
Description: MCL-1/Bim Binding AlphaLISA Assay.
Inhibition of the MCL-1 and Bim interaction was measured in the following AlphaLISA assay.
Recombinant human MCL-1 protein (C-terminal 6×His Tagged Mcl-1 containing residues 171-327) was generated at Gilead Sciences, Inc. (Foster City, Calif.). A biotinylated peptide derived from human Bim (residues 51-76) was purchased from CPC Scientific (Sunnyvale, Calif.). (CPC 834113). AlphaLISA anti-6His-acceptor beads (AL128R), AlphaScreen Streptavidin donor beads (6760002B), and Proxiplate-384 Plus (6008289) were purchased from PerkinElmer.
The AlphaLISA assay was performed in a 384-well Proxiplate in a total volume of […]. The reaction mixture contained 0.0625 nM 6×His-Mcl-1 (171-327), 0.0625 nM biotinylated-Bim peptide, 10 μg/mL AlphaLISA anti-6×His-AlphaLISA acceptor beads, […] AlphaScreen streptavidin donor beads, and serially diluted test compounds in the binding buffer (20 mM Hepes, pH 7.5 (Teknova H1035); 150 mM NaCl (Promega V4221); 0.002% Brij 35 (Thermo Scientific 20150); 1 mM Dithiothreitol (DTT) Solution (Affymetrix 70726); 0.01% BSA (BioLabs B9000S)). 1,000×test compounds were pre-spotted onto 384-well Proxiplate (Labcyte Echo) by Echo 555 Liquid Handler (Labcyte Inc., San Jose, Calif.) followed by incubation of 5 μl Mcl-1(171-327) for 1 hour. Then 5 μL Bim (51-76) was added and incubated for 2 hours. Five μL AlphaLISA anti-6His-AlphaLISA acceptor beads were then added for 1 hour followed by addition of 5 μL AlphaScreen streptavidin donor beads for 1 hour. The reaction plates were then read on an Envision multimode reader (PerkinElmer) using AlphaScreen settings. […] Percent inhibition was calculated as shown below: % Inhibition=100%*(Well−Neg)/(Pos−Neg) Neg: negative control, DMSO Pos: positive control, no Mcl-1 protein, no biotinylated-Bim peptide
In the case of CO[C@H]1/C=C/C[C@H](C)[C@@H](C)[S@@](=O)(NC(=O)COC2COC2)=NC(=O)c2ccc3c(c2)N(C[C@@H]2CC[C@H]21)C[C@@]1(CCCc2cc(Cl)ccc21)CO3 [Example 407], the IC50 is reported as 0.113 nM.
CO[C@H]1/C=C/CCC[S@@](=O)(NC(=O)c2cnn(C)c2)=NC(=O)c2ccc3c(c2)N(C[C@@H]2CC[C@H]21)C[C@@]1(CCCc2cc(Cl)ccc21)CO3 [Example 113] gave an IC50 of 0.046 nM.
COc1nn(C)cc1C(=O)N[S@@]1(=O)=NC(=O)c2ccc3c(c2)N(C[C@@H]2CC[C@H]2[C@@H](OC)/C=C/C[C@H](C)C1)C[C@@]1(CCCc2cc(Cl)ccc21)CO3 [Example 154] was tested, and the IC50 was 0.05 nM.
C[C@@H]1[C@@H](C)C/C=C/[C@H](O)[C@@H]2CC[C@H]2CN2C[C@@]3(CCCc4cc(Cl)ccc43)COc3ccc(cc32)C(=O)N=[S@]1(=O)NC(=O)c1cc2n(c1)CC(C)(CN1CCOCC1)OC2 (some centres unmarked) [Example 259] showed an IC50 of 0.098 nM.
In the case of COC[C@H]1C[C@H](NC(=O)N[S@@]2(=O)=NC(=O)c3ccc4c(c3)N(C[C@@H]3CC[C@H]3[C@@H](OC)/C=C/C[C@H](C)C2)C[C@@]2(CCCc3cc(Cl)ccc32)CO4)C1 [Example 200], the IC50 is reported as 0.064 nM.
Compound COCC1(C)Cn2cc(C(=O)N[S@@]3(=O)=NC(=O)c4ccc5c(c4)N(C[C@@H]4CC[C@H]4[C@@H](O)/C=C/C[C@H](C)[C@H]3C)C[C@@]3(CCCc4cc(Cl)ccc43)CO5)cc2CO1 (some centres unmarked) [Example 255] has an IC50 of 0.096 nM.
CO[C@H]1/C=C/C[C@H](C)C[S@@](=O)(NC(=O)c2cc(CN(C)C3CCOCC3)n(C)c2)=NC(=O)c2ccc3c(c2)N(C[C@@H]2CC[C@H]21)C[C@@]1(CCCc2cc(Cl)ccc21)CO3 [Example 241] was tested, and the IC50 was 0.087 nM.
CO[C@H]1/C=C/C[C@H](C)[C@@H](C)[S@@](=O)(NC(=O)COC2CCOCC2)=NC(=O)c2ccc3c(c2)N(C[C@@H]2CC[C@H]21)C[C@@]1(CCCc2cc(Cl)ccc21)CO3 [Example 108] was tested, and the IC50 was 0.1 nM.
Compound COC[C@H]1Cn2cc(C(=O)N[S@@]3(=O)=NC(=O)c4ccc5c(c4)N(C[C@@H]4CC[C@H]4[C@@H](OC)/C=C/C[C@H](C)[C@H]3C)C[C@@]3(CCCc4cc(Cl)ccc43)CO5)cc2CO1 [Example 215] has an IC50 of 0.203 nM.
CO[C@H]1/C=C/C[C@H](C)C[S@](N)(=O)=NC(=O)c2ccc3c(c2)N(C[C@@H]2CC[C@H]21)C[C@@]1(CCCc2cc(Cl)ccc21)CO3 (single isomer, unassigned) [Example 109] was tested, and the IC50 was 10.6 nM.
CO[C@H]1/C=C/C[C@H](C)C[S@@](=O)(NC(=O)N[C@H]2C[C@H]2F)=NC(=O)c2ccc3c(c2)N(C[C@@H]2CC[C@H]21)C[C@@]1(CCCc2cc(Cl)ccc21)CO3 [Example 115] was tested, and the IC50 was 0.068 nM.
Compound CO[C@H]1/C=C/C[C@H](C)C[S@@](=O)(NC(=O)c2cnn(C3CC3)c2)=NC(=O)c2ccc3c(c2)N(C[C@@H]2CC[C@H]21)C[C@@]1(CCCc2cc(Cl)ccc21)CO3 [Example 151] has an IC50 of 0.036 nM.
Compound COCC(=O)NS1(=O)=NC(=O)c2ccc3c(c2)N(C[C@@H]2CC[C@H]2[C@@H](OC)/C=C/CCC1)C[C@@]1(CCCc2cc(Cl)ccc21)CO3 (single isomer, unassigned) [Example 8] has an IC50 of 0.7 nM.
In the case of C[C@@H]1[C@@H](C)C/C=C/[C@H](O)[C@@H]2CC[C@H]2CN2C[C@@]3(CCCc4cc(Cl)ccc43)COc3ccc(cc32)C(=O)N=[S@]1(=O)NC(=O)c1cc2n(c1)CC1(COC1)OC2 [Example 239], the IC50 is reported as 0.042 nM.
Work on CO[C@H]1/C=C/C[C@H](C)C[S@@](=O)(NC(=O)N[C@H]2C[C@@](C)(OC)C2)=NC(=O)c2ccc3c(c2)N(C[C@@H]2CC[C@H]21)C[C@@]1(CCCc2cc(Cl)ccc21)CO3 [Example 193] yielded an IC50 of 0.046 nM.
CCOc1nn(C)cc1C(=O)N[S@@]1(=O)=NC(=O)c2ccc3c(c2)N(C[C@@H]2CC[C@H]2[C@@H](OC)/C=C/C[C@H](C)C1)C[C@@]1(CCCc2cc(Cl)ccc21)CO3 [Example 194] showed an IC50 of 0.03 nM.
For C[C@@H]1[C@@H](C)C/C=C/[C@H](O)[C@@H]2CC[C@H]2CN2C[C@@]3(CCCc4cc(Cl)ccc43)COc3ccc(cc32)C(=O)N=[S@]1(=O)NC(=O)c1cc2n(c1)CC(C)(C)OC2 [Example 264], the IC50 was 0.263 nM.
For CO[C@H]1/C=C/C[C@H](C)C[S@@](=O)(NC(=O)N2CC(Oc3ccccn3)C2)=NC(=O)c2ccc3c(c2)N(C[C@@H]2CC[C@H]21)C[C@@]1(CCCc2cc(Cl)ccc21)CO3 [Example 463], the IC50 was 0.219 nM.
With C[C@@H]1[C@@H](C)C/C=C/[C@H](O)[C@@H]2CC[C@H]2CN2C[C@@]3(CCCc4cc(Cl)ccc43)COc3ccc(cc32)C(=O)N=[S@]1(=O)NC(=O)N[C@@H]1C[C@H]1C(F)F [Example 260] the IC50 was 0.061 nM.
Work on CO[C@H]1/C=C/C[C@H](C)[C@@H](C)[S@](N)(=O)=NC(=O)c2ccc3c(c2)N(C[C@@H]2CC[C@H]21)C[C@@]1(CCCc2cc(Cl)ccc21)CO3 (single isomer, unassigned) [Example 110] yielded an IC50 of 2.63 nM.
Compound COc1nnc(C)cc1C(=O)N[S@@]1(=O)=NC(=O)c2ccc3c(c2)N(C[C@@H]2CC[C@H]2[C@@H](OC)/C=C/C[C@H](C)C1)C[C@@]1(CCCc2cc(Cl)ccc21)CO3 [Example 460] has an IC50 of 0.089 nM.
Compound COCCO[C@H]1/C=C/[C@H](OC)[C@@H]2CC[C@H]2CN2C[C@@]3(CCCc4cc(Cl)ccc43)COc3ccc(cc32)C(=O)N=[S@](=O)(NC(=O)c2cn(C)nc2OC)C[C@H]1C [Example 291] has an IC50 of 0.039 nM.
CO[C@H]1/C=C/C[C@H](C)C[S@@](=O)(NC(=O)COC2CCOCC2)=NC(=O)c2ccc3c(c2)N(C[C@@H]2CC[C@H]21)C[C@@]1(CCCc2cc(Cl)ccc21)CO3 [Example 106] was tested, and the IC50 was 0.1 nM.
CO[C@H]1/C=C/C[C@H](C)C[S@@](=O)(NC(=O)N[C@H]2[C@@H]3COC[C@@H]32)=NC(=O)c2ccc3c(c2)N(C[C@@H]2CC[C@H]21)C[C@@]1(CCCc2cc(Cl)ccc21)CO3 [Example 206] was tested, and the IC50 was 0.047 nM.
COc1nn(C)cc1C(=O)N[S@@]1(=O)=NC(=O)c2ccc3c(c2)N(C[C@@H]2CC[C@H]2[C@@H](OC)/C=C/[C@H](O)[C@H](C)C1)C[C@@]1(CCCc2cc(Cl)ccc21)CO3 [Example 279] showed an IC50 of 0.041 nM.
COc1nn(C)cc1C(=O)NS1(=O)=NC(=O)c2ccc3c(c2)N(C[C@@H]2CC[C@H]2[C@@H](OC)/C=C/C[C@H](C)C1)C[C@@]1(CCCc2cc(Cl)ccc21)CO3 (single isomer, unassigned) [Example 388] showed an IC50 of 1.06 nM.
COC1CCCn2cc(C(=O)N[S@@]3(=O)=NC(=O)c4ccc5c(c4)N(C[C@@H]4CC[C@H]4[C@@H](OC)/C=C/C[C@H](C)C3)C[C@@]3(CCCc4cc(Cl)ccc43)CO5)cc2C1 (some centres unmarked) [Example 190] gave an IC50 of 0.055 nM.
Compound COCCOc1nn(C)cc1C(=O)N[S@@]1(=O)=NC(=O)c2ccc3c(c2)N(C[C@@H]2CC[C@H]2[C@@H](OC)/C=C/C[C@H](C)C1)C[C@@]1(CCCc2cc(Cl)ccc21)CO3 [Example 216] has an IC50 of 0.196 nM.
With CO[C@H]1/C=C/C[C@H](C)C[S@@](=O)(NC(=O)NCC2CC2)=NC(=O)c2ccc3c(c2)N(C[C@@H]2CC[C@H]21)C[C@@]1(CCCc2cc(Cl)ccc21)CN3 [Example 107] the IC50 was 0.1 nM.
CCn1cc(C(=O)N[S@@]2(=O)=NC(=O)c3ccc4c(c3)N(C[C@@H]3CC[C@H]3[C@@H](OC)/C=C/CCC2)C[C@@]2(CCCc3cc(Cl)ccc32)CO4)cn1 [Example 104] gave an IC50 of 0.1 nM.

The compounds below were run on SKBR3 cells (assay: SKBR3 Cell Viability Assay (CellTiter Glo)). Conditions: 72 hours, CellTiter Glo luminescence, read-out: MCL-1 CV SKBR3 EC50.
Type: cell-based
Description: SKBR3 Cell Viability Assay Materials
SKBR3 Cells (ATCC HTB-30) were obtained from ATCC (Manassas, Va.) and cultured in McCoy 5A's medium (ATCC 30-2007)+10% fetal bovine serum (SH30071.03, HyClone, Pittsburgh, Pa.) plus 1× Penicillin-Streptomycin L-glutamine (Corning 30-009-C1, Corning, N.Y.)).
The cell viability assay was conducted in a 384-well tissue culture plate (Grenier 781086, Monroe, N.C.) in a total volume of 70 μL. Test compounds were prepared in 1,000×, serially diluted, and pre-spotted into 384-well tissue culture plate by Echo 555 Liquid Handler (Labcyte Inc., San Jose, Calif.). Seventy μl of 6,000 SKBR3 cells were dispensed into each well of the plate and incubated at 37° C. with 5% CO2 for 72 hours. At the end of incubation, 2× CellTiter Glo (CTG) reagents (1 part buffer with 2 parts substrate) (Promega, Madison, Wis.) were prepared, and the plate and the reagent were equilibrated to room temperature for 30 minutes. CTG reagent was added to each plate by Biomek FX at 20 μL/well with 5 times pipetting and mixing to induce cell lysis. Luminescence was read by Envision multimode reader (PerkinElmer). […] Percent inhibition was calculated as followed: % Inhibition=100%*(Well−Neg)/(Pos−Neg) Neg, negative control, DMSO Pos, positive control, 10 μM Puromycin
Work on CCC(=O)NS1(=O)=NC(=O)c2ccc3c(c2)N(C[C@@H]2CC[C@H]2[C@@H](OC)/C=C/CCC1)C[C@@]1(CCCc2cc(Cl)ccc21)CO3 (single isomer, unassigned) [Example 4] yielded an EC50 of 899 nM.
CO[C@H]1/C=C/C[C@H](C)[C@@H](C)S(=O)(=O)NC(=O)c2ccc3c(c2)N(C[C@@H]2CC[C@H]21)C[C@@]1(CCCc2cc(Cl)ccc21)CO3 [Comparative Example 1, reference compound] showed an EC50 of 2190 nM.

From US10703733B2, “MCL-1 inhibitors” (Gilead Sciences, Inc., priority 2018, dated 2020)
